Assay results reported in US11866483B2, “Fibrosis-inhibiting composition, cells producing same, and cell sheet comprising said cells” (KanonCure, Inc., priority 2018, dated 2024).

What was measured:
thioredoxin (TRX) = settings: 15 μM IC-2, UE7T-13 cells, culture supernatant Day 9
Protocol: Expression and production of MMP family members and TRX in cultured cells or the secreted products of those cells were determined by Western blotting and ELISA.
Cells: bone marrow-derived mesenchymal stem cell line, UE7T-13 cells.
UE7T-13 cells were seeded on each culture dish with a diameter of 10 cm such that the cell count in each dish was 9.0×10^3 cells/cm^2. The number of the culture dishes prepared was 6.
Cells in the remaining 3 culture dishes were treated with DMSO as control. Specifically, DMSO was added by completely exchanging the culture medium with DMEM/10% FBS containing DMSO at the final concentration of 0.1%.
For the DMSO treatment control, the culture medium was completely exchanged with DMEM/0.05% FBS containing DMSO at the final concentration of 0.1%. For the MSC group, the culture medium was completely exchanged with DMEM/0.05% FBS.
(1) A 5 ml aliquot of culture medium was collected from the culture dishes and these aliquots were combined in one tube for each group. […]
The aliquots of culture supernatants collected at Day 9 for ELISA assay were used to determine the production of thioredoxin by ELISA. […] The absorbance at 450 nm was measured using a microplate reader (Tecan Group Ltd). The content of thioredoxin in the culture supernatants was calculated from the absorbance using the calibration curve.

MMP-2 = test: Western blotting of culture supernatant of UE7T-13 cells, MMP-2; assay type: cell-based; settings: 15 μM IC-2, UE7T-13 cells, culture supernatant Day 9, vs 0.1% DMSO
Protocol: (§1) The number of the culture dishes prepared was 6.
(§2) The culture medium was exchanged in the same manner as Day 0. […] That is, the cells of chemical-untreated group, of which culture medium was collected for MSC, were seeded on 3 culture dishes with a diameter of 10 cm.
(§3) (2) A 12 ml aliquot of the supernatant was transferred to an Amicon Ultra-15 Centrifugal Filter Unit and was centrifuged at 5,000 g for 60 to 90 min.
(§4) (3) The absorbance of the enriched culture supernatant (secretome) was measured using a NanoDrop at 280 nm and the protein level was assayed. The blank culture medium and 2× modified RIPA buffer were added to adjust the protein concentration to 1.0 μg/μl. Then, a sonicator (BioRuptur manufactured by COSMO BIO, Tokyo, Japan) was used to perform the total 1 min and 4 cycles of sonication, each cycle including sonication at 200 W for 15 sec and a pause for 30 sec in ice bath. Then, 5×SDS sample buffer was added to adjust the protein concentration to 0.8 μg/μl. Finally, a block incubator (IKA, Staufen, Germany) was used for heat denaturing at 98° C. for 5 min. […]
(§5) After completion of the primary antibody reaction, the membranes were washed in a suitable volume of TBS-T for 10 min 3 times. […] After that, 1 ml of ECL Prime liquid (GE Healthcare Life Sciences) was applied to each membrane of which chemiluminescence was detected with a LAS-4000 (Fujifilm Corporation, Tokyo, Japan).

MMP-14 = test: Western blotting of culture supernatant of UE7T-13 cells, MMP-14; assay type: cell-based; settings: 15 μM IC-2, UE7T-13 cells, culture supernatant Day 9, vs 0.1% DMSO
Protocol: as §1, §2, §3, §4, §5

MMP-1 = test: Western blotting of culture supernatant of UE7T-13 cells, MMP-1; assay type: cell-based; settings: 15 μM IC-2, UE7T-13 cells, culture supernatant Day 9, vs 0.1% DMSO
Protocol: as §1, §2, §3, §4, §5

MMP-13 (active form) = test: Western blotting of culture supernatant of UE7T-13 cells, MMP-13; assay type: cell-based; settings: 15 μM IC-2, UE7T-13 cells, culture supernatant Day 9, vs 0.1% DMSO
Protocol: as §1, §2, §3, §4, §5

With O=C1[C@H](c2ccccc2)N2C(=O)CCN(C(=O)NCc3ccccc3)[C@H]2CN1Cc1cccc2ccccc12 [IC-2, (6S, 9aS)-6-phenyl-8-naphthalen-1-ylmethyl-4,7-dioxo-hexahydro-pyrazino[1,2-a] pyrimidine-1-carbocylic acid benzylamide] the “production of thioredoxin, increase (ELISA)” value (thioredoxin (TRX)) was 1.5 fold, the “MMP-2 increase as compared to DMSO control group (chemiluminescence band intensity)” value (MMP-2) was “about 1.5 fold” and the “MMP-14 increase as compared to DMSO control group (chemiluminescence band intensity)” value (MMP-14) was “about 2.1 fold”. For the same molecule, the “MMP-1 increase as compared to DMSO control group (chemiluminescence band intensity)” value (MMP-1) was “about 4.1 fold” and the “MMP-13 (active form) increase as compared to DMSO control group (chemiluminescence band intensity)” value (MMP-13 (active form)) was “about 5.1 fold”.
